Measured values reported in US11650214B2, “Proteins of the WNT signaling pathway and uses thereof in the diagnostic and treatment of hypopigmentation disorders” (INSERM (INSTITUT NATIONAL DE LA SANTÉ ET DE LA RECHERCHE …, priority 2014, dated 2023).

Assays:
Assay type in all cases: cell-based, human
[1] = tested on: WNT pathway in lesional skin from vitiligo patients; test: Ex vivo culture of lesional vitiligo skin biopsies with WNT pathway activators, RT-qPCR; settings: 14 days, SKL2001 40 μM; for mRNA level of early melanoblast marker Brn2 / mRNA level of early melanoblast marker PAX3 / relative mRNA expression of LEF / relative mRNA expression of WNT family: CHIR99021 3 μM, LiCl 20 μM; for relative mRNA expression of LEF / relative mRNA expression of WNT family: stimulation every other day, n=9
Description: (§1) Vitiligo patients (n=9) were biopsied in lesional skin area. The biopsies were stimulated in ex vivo culture during 14 days with GSK3β inhibitor: CHIR99021 (3 μM) or LiCl (20 μM) or with WNT agonist: SKL2001 (40 μM) every other day. mRNA was extracted and a RT-qPCR was performed to quantify the relative expression of LEF (A) and the pre-melanocytes markers PAX3 (B), Brn2 (C) MITF (D) and DCT (E).
as §1, with “WNT family” for “LEF (A) and the pre-melanocytes markers PAX3 (B), Brn2 (C) MITF (D) and DCT (E).”
For vitiligo skin biopsies, after verification of the absence of melanocytes with Wood's lamp, two or three 6 mm biopsies composed of dermis plus epidermis were taken into lesional skin from vitiligo patients (n=9). The biopsies are rapidly put on transwell chamber of 0.4 μm (Becton Dickinson) and kept on semi liquid culture conditions in “Skin long term culture medium” (Biopredic). The skin was maintained at 37° C. in a wet 5% CO2 atmosphere.
The culture medium supplemented with Forskolin (Sigma Aldrich), LiCl (Sigma Aldrich), CHIR99021 (Calbiochem) or SKL2001 (Calbiochem) was changed […] during 14 days.
mRNA from melanocytes and keratinocytes was extracted with RNeasy kit (Qiagen). The biopsies are cut and disrupted with tissue ruptor (Qiagen) and the mRNA was extracted with RNeasy kit (Qiagen). cDNA were synthesized from 300 ng to 1 μg of mRNA with the Reverse Transcription System (Promega). Relative quantification of gene expression was measured by real time qPCR with Sybr green reagent (Life technology) on Step one system.
In order to induce the differentiation of melanocyte stem cells, they pharmacologically activated the WNT pathway in vitiligo skin cultured ex vivo as shown previously. They used two methods to activate the WNT pathway: a WNT agonist (SKL2001) and two GSK3β inhibitors: lithium chloride (LiCl) and a commercial specific inhibitor (CHIR99021). They biopsied 9 vitiligo subjects (6 mm punch) on diverse body locations ([…], 2 on trunk, 2 on leg, 1 on arm and 1 on axilla) and treated the ex vivo culture model during 14 days with a systemic stimulation every other day with the WNT activators.
They evaluated the activation of WNT pathway by the mRNA level of WNTs (TCF/LEF1 and the melanogenesis pathway by the mRNA level of MITF, DCT, PAX3 and BRn2) within the skin. Treatments with LiCl, CHIR99021 and SKL2001 induce an increase of all WNT and LEF after 14 days of stimulation (FIG. 6A and FIG. 11).

[2] = tested on: whole skin in ex vivo culture; test: Oxidative stress (H2O2) in whole skin in ex vivo culture, qPCR of LEF1 and WNT family; settings: whole skin biopsies ex vivo, 24 hours, 25 to 100 μM H2O2
Description: (§2) NHM (A) and NHK (B) and whole skin in ex vivo culture (C) were stimulated 24 hours with 25 to 100 μM of H2O2. After mRNA extraction, a reverse transcription was performed and the relative gene expression of LEF1 was analyzed with qPCR.
(§3) (A) NHM, (B) NHK and (C) whole skin in ex vivo culture were stimulated 24 hours with 25 to 100 μM of H2O2. After mRNA extraction, a reverse transcription was performed and the relative gene expression of WNT family was analyzed with qPCR.
Skin from abdominoplasty surgery was used to the development of the ex vivo skin culture model. The subcutaneous fat was removed and biopsies of 6 mm were done in the skin composed of dermis and epidermis.
(§4) mRNA from melanocytes and keratinocytes was extracted with RNeasy kit (Qiagen). […] Relative quantification of gene expression was measured by real time qPCR with Sybr green reagent (Life technology) on Step one system.
(§5) Since the WNT pathway, implicated in melanocytes differentiation, seems to be affected in vitiligo skin, inventors tried to determine the element—known to be involved in vitiligo—responsible for this dysregulation. […] They induced an oxidative stress with H2O2 in melanocytes and keratinocytes and analyzed the expression of LEF and WNT family. […]

[3] = tested on: NHK (keratinocytes); test: Oxidative stress (H2O2) in NHK, qPCR of LEF1 and WNT family; settings: 24 hours
Description: as §2, §3
(§6) NHMs and NHKs are obtained from the foreskin of phototype IV children as described previously. Briefly, epidermal cells are obtained by overnight digestion of the skin in a dispase solution (Roche) at 4° C. followed by the digestion of the epidermis in a trypsin/EDTA solution during 20 minutes at 37° C. […]
as §4, §5

[4] = tested on: NHM (melanocytes); test: Oxidative stress (H2O2) in NHM, qPCR of LEF1 and WNT family; settings: 24 hours
Description: as §2, §3, §6, §4, §5

[5] = 25 to 100 μM H2O2, majority of WNT

| Structure (SMILES) | mRNA level of early melanoblast marker Brn2 [1] | mRNA level of early melanoblast marker PAX3 [1] | mRNA level of MITF [1] | relative mRNA expression of LEF [1] | relative mRNA expression of WNT family [1] | expression of LEF [2] | expression of WNT family ([2]; most of the WNT family) | expression of LEF ([3]; 25 to 100 μM H2O2) | expression of WNT family [3, 5] | expression of LEF ([4]; 25 to 100 μM H2O2) | expression of WNT family [4, 5] |
| --- | --- | --- | --- | --- | --- | --- | --- | --- | --- | --- | --- |
| O=C(NCCCn1ccnc1)c1cc(-c2ccco2)on1 [SKL2001] | up-regulated | up-regulated | increased | increase | increase | – | – | – | – | – | – |
| OO [H2O2] | – | – | – | – | – | decrease expression | decrease expression | decreased | decreased | decreased | decreased |
| Cc1c[nH]c(-c2cnc(NCCNc3ccc(C#N)cn3)nc2-c2ccc(Cl)cc2Cl)n1 [CHIR99021] | up-regulated | up-regulated | – | increase | increase | – | – | – | – | – | – |
